The source made the active and inactive calls. No cut-off for these calls is given here.
Key:
[1] = test system: Pseudomonas aeruginosa; experiment: Additive antibacterial activity against multidrug-resistant Pseudomonas aeruginosa CCARM 2095 strain assessed as bacterial growth inhibition in presence of ciprofloxacin by checkerboard assay; assay type: functional
[2] = test system: Staphylococcus aureus; experiment: Additive antibacterial activity against methicillin-resistant Staphylococcus aureus CCARM 3089 strain assessed as oxacillin MIC by checkerboard assay; assay type: functional
[3] = test system: Pseudomonas aeruginosa; experiment: Additive antibacterial activity against multidrug-resistant Pseudomonas aeruginosa CCARM 2095 strain assessed as fractional inhibitory concentration in presence of ciprofloxacin by checkerboard assay; assay type: functional
[4] = test system: Pseudomonas aeruginosa; experiment: Additive antibacterial activity against multidrug-resistant Pseudomonas aeruginosa CCARM 2095 strain assessed as ciprofloxacin fractional inhibitory concentration by checkerboard assay; assay type: functional
[5] = test system: Pseudomonas aeruginosa; experiment: Additive antibacterial activity against multidrug-resistant Pseudomonas aeruginosa CCARM 2095 strain assessed as fractional inhibitory concentration index in presence of chloramphenicol by checkerboard assay; assay type: functional
[6] = test system: Pseudomonas aeruginosa; experiment: Additive antibacterial activity against multidrug-resistant Pseudomonas aeruginosa CCARM 2095 strain assessed as chloramphenicol fractional inhibitory concentration by checkerboard assay; assay type: functional
[7] = test system: Pseudomonas aeruginosa; experiment: Antibiofilm activity against multidrug-resistant Pseudomonas aeruginosa assessed as bacterial growth inhibition at 8 ug/ml relative to control; assay type: functional
[8] = test system: Pseudomonas aeruginosa; experiment: Bactericidal activity against multidrug-resistant Pseudomonas aeruginosa CCARM 2095 measured after 24 hrs by time-kill kinetics assay; assay type: functional, organism-based
[9] = test system: Pseudomonas aeruginosa; experiment: Antibiofilm activity against multidrug-resistant Pseudomonas aeruginosa assessed as bacterial growth inhibition at 1 ug/ml relative to control; assay type: functional
[10] = test system: Pseudomonas aeruginosa; experiment: Antibacterial activity against multidrug-resistant Pseudomonas aeruginosa CCARM 2095 strain assessed as chloramphenicol MIC by checkerboard assay; assay type: functional
[11] = test system: Pseudomonas aeruginosa; experiment: Antibacterial activity against multidrug-resistant Pseudomonas aeruginosa CCARM 2095 strain assessed as fractional inhibitory concentration index in presence of chloramphenicol by checkerboard assay; assay type: functional

N=C(N)NCCNc1nc(NCCNC(=N)N)nc(N2CC(Cc3ccccc3)N(c3nc(NCCNC(=N)N)nc(NCCNC(=N)N)n3)CC2Cc2ccccc2)n1 (stereo unspecified)
MIC [1]: 16 µg/mL | MIC [2]: 128 µg/mL | FIC [3]: 0.5 | FIC [4]: 0.5 | fractional inhibitory concentration index (FICI) [5]: 0.75 | FIC [6]: 0.25

NCCN(CCN)c1nc(NCc2ccccc2)nc(N2CC(Cc3ccccc3)N(c3nc(NCc4ccccc4)nc(N(CCN)CCN)n3)CC2Cc2ccccc2)n1 (stereo unspecified)
inhibition at 8 µg/mL [7]: 100% | Activity [8]: inactive | inhibition at 1 µg/mL [9]: 50%

NCCNc1nc(NCCN)nc(N2CC(Cc3ccccc3)N(c3nc(NCCN)nc(NCCN)n3)CC2Cc2ccccc2)n1 (stereo unspecified)
MIC [10]: 256 µg/mL | fractional inhibitory concentration index (FICI) [11]: 1.25
